# Structures can show the parent of a compound that is named as a salt. No end group written: not given here.
# What was measured:
# [1] = test system: hypoxia-induced gene expression in MCF7 cells; test: Gene expression profiling with Affymetrix Human Gene ST 1.0 microarrays; format: cell-based; conditions: 300 μM DFO
# [2] = target: GST-tagged CH1 domain of human p300 (aa residues 323-423) (Homo sapiens, UniProt Q09472); test: SPR binding to immobilized p300-CH1-GST
# [3] = target: p300-CH1-GST fusion (Homo sapiens, UniProt Q09472); test: CD spectroscopy of p300-CH1-GST fold; conditions: CD spectra
# Sequence of p300-CH1-GST fusion (Q09472 323-423): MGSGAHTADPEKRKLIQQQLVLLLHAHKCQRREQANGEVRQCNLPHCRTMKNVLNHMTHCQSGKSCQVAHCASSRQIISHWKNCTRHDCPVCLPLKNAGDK
# [4] = target: p300-CH1-GST/HIF-1α C-TAD complex (Homo sapiens, UniProt Q09472); test: Fluorescence polarization competition assay; format: binding
# Sequence of p300-CH1-GST/HIF-1α C-TAD complex (Q09472 323-423, one chain of several): as the sequence (Q09472 323-423) above
# [5] = test system: MCF7 cells; test: Cell viability assay; format: cell-based; conditions: Homo sapiens, MCF7, 24 h
# [6] = test system: HIF-1α levels in cells; test: Western blot of HIF-1α levels; format: cell-based, human; conditions: 200 nM, 300 μM DFO
# [7] = test system: mice; conditions: cited from earlier work
# [8] = target: p300-CH1-GST fusion protein (GST-tagged CH1 domain of human p300, aa residues 323-423) (human, UniProt Q09472 323-423); test: fluorescence polarisation
# Sequence of p300-CH1-GST fusion protein (GST-tagged CH1 domain of human p300, aa residues 323-423) (Q09472 323-423): as above
# Sequence of GST-tagged CH1 domain of human p300 (aa residues 323-423) (Q09472 323-423): as above
molecule,measurement,setting,value
"CC(=O)N(O)CCCCCNC(=O)CCC(=O)N(O)CCCCCNC(=O)CCC(=O)N(O)CCCCCN [DFO, desferrioxamine mesylate]",number of transcripts affected (2-fold or more) by DFO treatment alone,[1],580
same,number of transcripts induced by at least 4-fold (P < 0.01),[1],43
"CN1C(=O)[C@]2(Cc3cn([C@]45C[C@@]67SS[C@@](CO)(C(=O)N6[C@H]4Nc4ccccc45)N(C)C7=O)c4ccccc34)SS[C@@]1(CO)C(=O)N2C [compound 2, chetomin]",Kd,[2],540 nM
same,off-rate (Kd),"[2]; SPR, 100 μM DTT",0.0033 s⁻¹
same,concentration causing structural changes / unfolding of p300-CH1-GST,[3],1 µM
same,IC50,[4],540 ± 180 nM
same,GI50,[5],180 ± 40 nM
same,levels of HIF-1α in hypoxic cells,[6],remained constant
same,effect on vascularization in mice,[7],inhibit vascularization in mice
"SMDESGLPQLTSYDCEVNAPIQGSRNLLQGEELLRALDQVN (peptide, UniProt Q16665 786-826, looked up, also: fluorescein label, position not given here) [fluorescein-labeled C-TAD domain of human HIF-1α (residues 786-826)]",binding result,[8],binds

# From publication PMC2796602 (Journal of the American Chemical Society, 2009)
